Source: patent US20250179033A1 (priority 2021, published 2025)
Read-outs that look alike come from different tables or passages of the source.

Columns and labels:
[1] = Human liver microsome stability; format: in vitro ADME
Experimental: Mouse/Human liver microsome stability: A liver microsome solution (197.5 μL, 1.27 mg/ml protein concentration) (Sekisui Xenotech, Kansas City, KS) was aliquoted into 1.1 ml tubes, to which 2.5 μL of positive control and compound stock solutions (100 μM in DMSO) were added. The tubes were vortexed gently, pre-incubated for 5 min at 37° C., then 50 μL of 5 mM NADPH or LM buffer (no NADPH buffer) was added into the tubes. For analysis, an aliquot of 15 μL was removed from each tube at 0, 5, 15, 30 and 60 min (without-NADPH reaction: 0, 30 and 60 min) and quenched with 300 μL of 25 ng/ml propranolol in acetonitrile. Samples were vigorously vortexed for 1 min and then centrifuged at 4,000 rpm for 15 min at 4° C. 100 μL of supernatant from each sample was transferred to 0.65 ml tubes for LCMS analysis. The amount of parent compound was determined on the basis of the peak area ratio (compound area to IS area) for each time point. Clearance rates were calculated by the equation: […]

[2] = target: T1, HIV I reverse transcriptase (Human immunodeficiency virus type 1 group M subtype B, UniProt P03366); assay: Reverse transcriptase inhibition assay (Roche kit, ELISA); format: biochemical
T1 construct: purchased Roche
Experimental: NNRTI assay methods: Inhibition of HIV I reverse transcriptase was assessed via a kit from Roche (Indianapolis-Marion County, Indiana, United States of America) using the manufacture's protocol (500 μM final reverse transcriptase reaction amount). […] DMSO concentrations were kept the same for all dilutions used within an assay (0.05%). Final compound concentrations ranged from 5000 nM-0.05 nM with 2-fold serial dilutions. 96-well plates were set up with 20 μL compound dilution, 20 μL reverse transcriptase, and 20 μL template/nucleotides and incubated at 37° C. 5% CO2 for 1 hr in a reaction plate. 50 μL of each reaction was then transferred to a streptavidin conjugated 96-well plate and an ELISA assay was run based on manufacture's protocol. All compounds were tested in sextuplicate, with single wells of efavirenz dilutions on each plate.

CYP3A4 = CYP3A4 (Homo sapiens, UniProt P08684); assay: Human CYP inhibition in human liver microsomes; format: in vitro ADME
Experimental: (§1) Study samples (containing either control inhibitor or test compound) were added into the tubes, vortexed gently and pre-incubated for 5 min at 37° C. 20 μL of NADPH solution was aliquoted into all tubes, then vortexed to start the reaction and to assure adequate mixture of the NADPH. After mixing, the tubes were incubated for 20 min at 37° C. in a shaking water bath and then quenched in […] formic acid/acetonitrile solution. After quenching, the samples were vortexed vigorously for 1 min and centrifuged at 4,000 rpm for 15 min (4° C.). 100 μL of supernatant was transferred to 0.65 ml tubes for LCMS analysis by the bioanalytical method described earlier. The CYP450 substrates and control inhibitors for each enzyme was as follows: CYP1A2 (phenacetin, naphthoflavone), CYP2C9 (diclofenac, sulfaphenazole), CYP2C19 (omeprazole, tranylcypromine), CYP2D6 (dextromethorphan, quinidine), CYP3A4 (midazolam, ketoconazole).

CYP2D6 = CYP2D6 (Homo sapiens, UniProt P10635); assay: Human CYP inhibition in human liver microsomes; format: in vitro ADME
Experimental: as §1

Caco-2 permeability = format: in vitro ADME; conditions: human, Caco-2, pH 7.4
Experimental: (§2) Caco-2 Permeability: Caco-2 cells (ATCC®, Manassas, Virginia, United States of America) were grown on 24-well (pore size: 0.4 μm) polycarbonate filters. The monolayers were pre-incubated with pre-warmed HBSS (Hank's balanced salt solution) containing 2.5% HEPES buffer (pH 7.4) for 0.5 h at 37° C. After pre-incubation, the buffer was removed, and the experimental compounds were added to reach a final concentration of 10 μM. 2% bovine serum albumin (BSA) was added to the receiver buffer for the study. The total volume was 400 μL for the apical (A) side and 1200 μL for the basolateral (B) side. For apical to basolateral transport study (A-B), 100 μL each was collected from both sides for sample analysis at the start of the assay and then 200 μL was collected from the […] at 90 minutes (end of the study). The same timepoints and amounts were used for the basolateral to apical transport study (B-A).
(§3) The apparent permeability coefficient (Papp) was calculated from the following equation.
(§4) • v=Volume of the receiver cell • A=Exposed surface area (0.64 cm^2) • C=Initial donor concentration • ∂C/∂t=Change in receiver concentration over time

in vitro = in vitro ADME, human
Experimental: Protein Binding in Plasma: The donor side of dialysis inserts were filled with 200 μL plasma (human and mouse; source BioDuro, San Diego, California, United States of America) containing 5 μM drug and 0.5% of DMSO and the receiver side of the dialysis inserts was filled with 350 μL of PBS buffer (100 mM, pH 7.4). The prepared dialysis apparatus was placed in a shaker (37° C., 100 rpm) for 5 hours. Two tubes with plasma containing 5 μM experimental compound were also prepared for stability test: one tube was placed in the […] for 5 hours and the other tube was placed in shaker ([…], 100 rpm) for 5 hours. Samples were collected from the donor and receiver sides of each dialysis insert. The same volume of blank plasma was added to buffer samples and blank buffer to plasma samples to make sure all sample mixtures contain 50% plasma and 50% buffer. 50 μL of each sample was mixed with 300 μL of acetonitrile containing 25 ng/ml internal standard (propranolol). All samples were vortexed for 1 minute and then centrifuged at 4000 rpm, 4° C. for 15 min. 100 μL of the supernatant was transferred to 0.65 ml tube for LCMS analysis. The amount of compound was determined on the basis of the peak area ratio (compound area to internal standard area) for the two sides, and protein binding is determined using the following equations: % Bound=100×([Area Ratio of Donor]5h*5−[Area Ratio of Receiver]5h)/([Area Ratio of Donor]5h*5). The percentage remaining at 37° C. after 5 hours was calculated on the basis of the amount measured at 0° C. after 5 hours.

Caco-2 cells = assay: Caco-2 permeability; format: in vitro ADME; conditions: 10 μM
Experimental: as §2, §3, §4

Chain of CYP2D6 (P10635 whole entry): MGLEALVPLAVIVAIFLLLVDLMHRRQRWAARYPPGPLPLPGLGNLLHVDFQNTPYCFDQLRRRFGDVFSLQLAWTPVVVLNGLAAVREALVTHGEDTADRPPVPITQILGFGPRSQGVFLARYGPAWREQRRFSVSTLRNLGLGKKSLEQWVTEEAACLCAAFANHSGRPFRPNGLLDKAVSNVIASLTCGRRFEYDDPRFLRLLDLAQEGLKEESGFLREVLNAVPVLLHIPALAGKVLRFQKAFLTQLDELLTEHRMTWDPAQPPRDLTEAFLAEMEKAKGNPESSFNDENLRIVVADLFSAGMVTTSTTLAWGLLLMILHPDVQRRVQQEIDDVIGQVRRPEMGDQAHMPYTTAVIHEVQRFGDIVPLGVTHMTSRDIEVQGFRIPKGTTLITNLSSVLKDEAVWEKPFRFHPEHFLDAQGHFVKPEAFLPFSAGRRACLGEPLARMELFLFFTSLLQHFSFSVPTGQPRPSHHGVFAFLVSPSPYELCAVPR
Chain of CYP3A4 (P08684 whole entry): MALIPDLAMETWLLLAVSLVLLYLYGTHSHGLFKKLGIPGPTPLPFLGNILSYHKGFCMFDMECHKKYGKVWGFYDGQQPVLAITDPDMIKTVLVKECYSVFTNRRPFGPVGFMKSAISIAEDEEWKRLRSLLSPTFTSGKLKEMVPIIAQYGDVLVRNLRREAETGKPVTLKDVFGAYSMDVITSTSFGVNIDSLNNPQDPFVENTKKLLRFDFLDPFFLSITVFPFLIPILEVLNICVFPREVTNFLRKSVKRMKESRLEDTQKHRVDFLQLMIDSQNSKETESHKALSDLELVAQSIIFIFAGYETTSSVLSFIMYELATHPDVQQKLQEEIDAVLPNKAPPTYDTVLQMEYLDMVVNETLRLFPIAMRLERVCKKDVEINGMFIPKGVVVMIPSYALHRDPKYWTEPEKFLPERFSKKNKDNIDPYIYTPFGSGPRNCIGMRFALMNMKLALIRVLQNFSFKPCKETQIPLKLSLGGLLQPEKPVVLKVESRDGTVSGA

SMILES	Human liver microsomes, stability in words [1]	half-life at 1 μM ([1]; human, liver microsomes) [min]	microsomal CLint at 1 μM ([1]; human, liver microsomes) [µL/min/mg]	EC50 [2] [µM]	IC50 [2] [µM]	disparity between the IC50s for in-cell (TZM-bl) and reverse transcriptase HIV I inhibition [2] [fold]	IC50 (CYP3A4; human liver microsomes, substrate midazolam, read-out: CYP inhibition IC50, 3A4) [µM]	IC50 (CYP2D6; human liver microsomes, substrate dextromethorphan, read-out: CYP inhibition IC50, 2D6) [µM]	efflux ratio at 90 min, 10 μM (Caco-2 permeability)	Papp A→B at 90 min, 10 μM (Caco-2 permeability; 10 μM, 90 minutes) [nm/s]	Papp B→A at 90 min, 10 μM (Caco-2 permeability; 10 μM, 90 minutes) [nm/s]	half-life at 5 μM (in vitro; human, plasma) [min]	fraction unbound (in vitro; human, plasma, pH 7.4, 5 μM, dialysis 5 hours, read-out: Human plasma protein binding)	Human liver microsomes CLint ([1]; human, liver microsomes, 1 μM) [μL/min/mg protein]	IC50 (CYP3A4) [µM]	IC50 (CYP2D6) [µM]	Caco-2 Papp A-B (Caco-2 cells; 90 minutes) [nm/s]	Caco-2 Papp B-A (Caco-2 cells; 90 minutes) [nm/s]	Caco-2 Efflux ratio (Caco-2 cells; human, Caco-2, 90 min, pH 7.4)	Human plasma protein binding (in vitro; 5 μM, dialysis 5 hours) [%]
N#C/C=C/c1ccc2c(S(=O)(=O)n3nc(Nc4ccc(C#N)c(Cl)c4)nc3N)cccc2c1 [Compound 20, 4-[[5-amino-1-[[6-[2-cyanovinyl]-1-naphthyl]sulfonyl]-1,2,4-triazol-3-yl]amino]-2-chloro-benzonitrile]	stable	53.8	25.8	4.06	1.35	1000	31.3	> 50	1	4	4	> 373	< 0.001	–	–	–	–	–	–	–
Nc1nc(Nc2ccc(Cl)cc2)nn1S(=O)(=O)c1ccc2ccccc2c1 [Compound 1, N3-(4-chlorophenyl)-1-(2-naphthylsulfonyl)-1,2,4-triazole-3,5-diamine]	protein, stable	–	–	4.84	–	–	–	–	–	–	–	–	–	2.0	> 50	> 50	1.38	1.22	(×10−6 cm/s) Efflux ratio = 0.883	>99.9
